For eight compounds, IC50 results are on record in BindingDB's records for doi:10.1021/jm00355a015 (1983).

The target of this assay is arachidonate 5-lipoxygenase (Cavia porcellus). Put plainly: Inhibitory activity against 5-lipoxygenase.
What is called IC50 is the concentration at which inhibition is half-maximal. In turn, `CCCCC/C=C\C\C=C/C=C/C=C/C1CC1CCCC(=O)O` (stereo not drawn) [4-(2-Tetradeca-1,3,5,8-tetraenyl-cyclopropyl)-butyric acid] showed an IC50 of 3 µM. The result for `CCCCCCCCCCCCCCC1CC1CCCC(=O)O` (stereo not drawn) [4-(2-Tetradecyl-cyclopropyl)-butyric acid] reads 100 µM; that for `CCCCC/C=C\C\C=C/C=C/C=C/C1SC1CCCC(=O)OC` (stereo not drawn) [4-(3-Tetradeca-1,3,5,8-tetraenyl-thiiranyl)-butyric acid methyl ester], 65 µM. Compound `CCCCC/C=C\C\C=C/C=C/C=C/[C@@H]1O[C@H]1CCCC(=O)O` [4-{(2S,3S)-3-[(1E,3E,5Z,8Z)-tetradeca-1,3,5,8-tetraen-1-yl]oxiran-2-yl}butanoic acid] gave an IC50 of 2 µM.

For the compound `CCCCC/C=C\C\C=C/C=C/C=C/C1CC1CCCCC(=O)O` (stereo not drawn) [5-(2-Tetradeca-1,3,5,8-tetraenyl-cyclopropyl)-pentanoic acid], the IC50 stood at 20 µM. `CCCCC/C=C\C/C=C\C/C=C\C=C\C(CO)CCCC(=O)O` (stereo not drawn) [5-Hydroxymethyl-icosa-6,8,11,14-tetraenoic acid] yielded an IC50 of 100 µM. The result for `CCCCC/C=C\C/C=C\CC=CC=CC(=O)CCCC(=O)OC` [5-Oxo-icosa-6,8,11,14-tetraenoic acid methyl ester] reads 20 µM. Turning to `CCCCC/C=C\C/C=C\C/C=C\C=C\[C@@H](O)CCCC(=O)O` [(5S,6E,8Z,11Z,14Z)-5-hydroxyicosa-6,8,11,14-tetraenoic acid], the half-inhibitory concentration (IC50) was 2 µM.
